Results from ChEMBL document CHEMBL1145250, “Discovery of 4-(dimethylamino)quinazolines as potent and selective antagonists for the melanin-concentrating hormone receptor 1” (Bioorg Med Chem Lett, 2005).

Key:
[1] = target: Alpha-2A adrenergic receptor (Homo sapiens, UniProt P08913); assay: Inhibitory activity against constitutively activated human Alpha-2A adrenergic receptor transiently expressed in COS-1 cells using [3H]MK-912; format: cell-based
[2] = target: T1, Melanin-concentrating hormone receptor 1 (Homo sapiens, UniProt Q99705); assay: Inhibitory activity against mutated constitutively activated human Melanin concentrating hormone receptor 1 (CA-MCH-R1) stably expressed in HEK293 cells using [125I](Phe13, Tyr19) MCH; format: cell-based
Target sequence in this assay (Q99705 whole entry, looked up): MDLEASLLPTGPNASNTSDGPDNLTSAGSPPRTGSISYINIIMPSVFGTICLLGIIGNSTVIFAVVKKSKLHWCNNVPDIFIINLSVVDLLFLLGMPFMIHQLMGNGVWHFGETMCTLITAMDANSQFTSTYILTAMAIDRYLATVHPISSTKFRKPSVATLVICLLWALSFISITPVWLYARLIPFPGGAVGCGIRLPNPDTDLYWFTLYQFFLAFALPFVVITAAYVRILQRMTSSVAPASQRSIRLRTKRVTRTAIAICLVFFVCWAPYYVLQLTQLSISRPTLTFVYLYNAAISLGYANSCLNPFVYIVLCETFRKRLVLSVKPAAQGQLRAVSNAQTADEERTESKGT

[3] = target: T2, Neuropeptide Y receptor type 5 (Homo sapiens, UniProt Q15761); assay: Inhibitory activity against constitutively activated human Neuropeptide Y receptor Y5 transiently expressed in COS-1 cells using [125I]PYY; format: cell-based
T2 sequence (Q15761 whole entry): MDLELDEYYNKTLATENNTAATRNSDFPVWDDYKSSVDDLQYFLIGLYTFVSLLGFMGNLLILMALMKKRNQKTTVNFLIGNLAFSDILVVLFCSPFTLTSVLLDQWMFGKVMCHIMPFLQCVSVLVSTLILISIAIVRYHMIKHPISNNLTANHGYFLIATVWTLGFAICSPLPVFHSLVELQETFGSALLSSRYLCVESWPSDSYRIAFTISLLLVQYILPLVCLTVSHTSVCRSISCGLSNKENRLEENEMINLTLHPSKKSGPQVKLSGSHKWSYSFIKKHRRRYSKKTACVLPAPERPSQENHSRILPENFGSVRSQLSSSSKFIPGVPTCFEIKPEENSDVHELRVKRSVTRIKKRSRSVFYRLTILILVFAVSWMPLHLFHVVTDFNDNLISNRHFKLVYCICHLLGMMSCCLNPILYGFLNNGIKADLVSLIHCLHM

[4] = target: T1, Melanin-concentrating hormone receptor 1; assay: Inhibitory activity against human constitutively activated Melanin concentrating hormone receptor 1 induced calcium flux stably expressed in HEK293 cells (n=6)
Target sequence in this assay (Q99705 whole entry): as the sequence (Q99705 whole entry, looked up) above

[5] = target: T1, Melanin-concentrating hormone receptor 1; assay: Inhibitory activity against human wild type Melanin concentrating hormone receptor 1 (CA-MCH-R1) stably expressed in HEK293 cells using [125I](Phe13, Tyr19) MCH (n=3); format: cell-based
Target sequence in this assay (Q99705 whole entry): as the sequence (Q99705 whole entry, looked up) above

[6] = target: T1, Melanin-concentrating hormone receptor 1; assay: Inhibitory activity against mutated constitutively activated human Melanin concentrating hormone receptor 1 (CA-MCH-R1) stably expressed in HEK293 cells using [125I](Phe13, Tyr19) MCH (n=8); format: cell-based
Target sequence in this assay (Q99705 whole entry, looked up): as the sequence (Q99705 whole entry, looked up) above

Chain of Alpha-2A adrenergic receptor (P08913 whole entry, looked up): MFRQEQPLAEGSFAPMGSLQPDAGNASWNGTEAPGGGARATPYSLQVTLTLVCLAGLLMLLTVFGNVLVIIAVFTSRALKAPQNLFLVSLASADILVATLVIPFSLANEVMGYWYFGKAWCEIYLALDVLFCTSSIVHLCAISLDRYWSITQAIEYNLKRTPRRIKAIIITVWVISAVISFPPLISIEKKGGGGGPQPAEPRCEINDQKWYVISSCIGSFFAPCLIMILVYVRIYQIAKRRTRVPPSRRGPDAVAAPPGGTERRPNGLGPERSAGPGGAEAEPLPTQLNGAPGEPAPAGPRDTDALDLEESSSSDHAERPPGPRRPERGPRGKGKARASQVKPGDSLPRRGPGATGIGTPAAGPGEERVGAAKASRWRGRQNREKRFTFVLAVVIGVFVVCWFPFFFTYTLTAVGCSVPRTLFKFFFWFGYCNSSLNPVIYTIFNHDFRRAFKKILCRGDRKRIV

IC50 [1] [nM]	IC50 [2] [nM]	IC50 [3] [nM]	IC50 [4] [nM]	IC50 [5] [nM]	IC50 [6] [nM]	Compound
5.6	6000	3000				CN(C)c1nc(NCC2CCN(S(=O)(=O)c3ccc(Br)cc3OC(F)(F)F)CC2)nc2ccccc12
140	> 10000	78				O=S(=O)(NCC1CCC(CNc2ncc3ccccc3n2)CC1)c1ccc(Br)cc1OC(F)(F)F (trans isomer)
7.7		2.7	140	200	160	CN(C)c1nc(NCC2CCC(CNS(=O)(=O)c3ccc(Br)cc3OC(F)(F)F)CC2)nc2ccccc12 (trans isomer)
86	> 10000	41				CN(C)c1nc(NCC2CCC(CNS(C)(=O)=O)CC2)nc2ccccc12 (stereo not given)
	6700					CCCCCCCCS(=O)(=O)NCC1CCC(CNc2nc(N(C)C)c3ccccc3n2)CC1 (trans isomer)
58	2900	4.9				CCCCS(=O)(=O)NCC1CCC(CNc2nc(N(C)C)c3ccccc3n2)CC1 (trans isomer)
100	1900	1.6				Nc1nc(NCC2CCC(CNS(=O)(=O)c3ccc(Br)cc3OC(F)(F)F)CC2)nc2ccccc12 (trans isomer)
	> 10000					CC(C)S(=O)(=O)NCC1CCC(CNc2nc(N(C)C)c3ccccc3n2)CC1 (trans isomer)
21	810	2.5				CN(C)c1nc(NCC2CCC(NS(=O)(=O)c3ccc(Br)cc3OC(F)(F)F)CC2)nc2ccccc12 (trans isomer)
47	2200	31				CN(C)c1nc(NC2CCC(NS(=O)(=O)c3ccc(Br)cc3OC(F)(F)F)CC2)nc2ccccc12 (trans isomer)
110	1500	150				CN(C)c1nc(NC2CCC(CNS(=O)(=O)c3ccc(Br)cc3OC(F)(F)F)CC2)nc2ccccc12 (stereo not given)
	3500					Nc1nc(NC[C@H]2CC[C@H](CNS(=O)(=O)c3cccc4ccccc34)CC2)nc2ccccc12 [CGP-71683A]
170	250	8900				CN(C)c1nc(NC2CCN(S(=O)(=O)c3ccc(Br)cc3OC(F)(F)F)CC2)nc2ccccc12
